Article PMC7139549, “TLD1433 Photosensitizer Inhibits Conjunctival Melanoma Cells in Zebrafish Ectopic and Orthotopic Tumour Models” (Cancers, 2020)

Tests used:
CRMM2 cells = assay: Annexin-V-FITC / Propidium Iodide FACS, CRMM2; type: cell-based, Human
Text: Depending on the nature and intracellular localization of a PS, the light dose, and the cell type, PDT is known to provoke either necrosis, apoptosis, or autophagy. In order to investigate the death mechanism induced by green light-activated TLD1433 in CRMM1 and CRMM2 cells, the cells were stained with Annexin V and propidium iodide, and further analysed by fluorescence-activated cell sorting (FACS).
Figure 3 Green light irradiation of TLD1433 induces apoptosis and necrosis in CRMM1 and CRMM2 cells. (A) CRMM1 and (C) CRMM2 were stained with Annexin-V-FITC and Propidium Iodide. The percentages of live, early apoptotic, later apoptotic and necrotic cells in CRMM1 (B) and CRMM2 (D) were counted by FACS. Results are presented as means ± SD from three independent experiments. […]

[1] = test system: wild type zebrafish embryos; assay: Maximum tolerated dose in wild type zebrafish embryos; type: in vivo; details: for Maximum Tolerated Dose (MTD): Wild Type Embryos, 4 treatments, 90 min green light 114 J.cm^−2; for concentration not toxic to embryos in the dark: wild type embryos
Protocol: Water administration (WA) of drugs by skin epithelial cell absorption and drinking is commonly used in zebrafish drug experiments. […] In addition, we also tested IV of TLD1433 by direct injection into the dorsal vein, as well behind the eye injections for RO administration. For IV and RO administration, the compound was injected four times into the embryos at 3, 4, 5 and 6dpf, followed by 60 min drug-to-light interval and the same kinetic and irradiation regime as for the WA administration (Figure 5A).
(A) Schedule of TLD1433 treatment in wild type zebrafish. […] (B) WA, (C) IV, (D) RO. (B–D) Images were made of irradiated (light) and non-irradiated (dark) embryos (n = 30) at 6dpf and the percentages of mortality, malformation and fish length were calculated (shown as means ± SD from three independent experiments). Representative images of embryos under dark and light conditions are shown.
At 2.5, 3.5, 4.5, 5.5 dpf, TLD1433 was added to the fish water and maintained for 12 h. […] At 3, 4, 5, 6 dpf, 1nL of TLD1433 was injected via the dorsal vein or the RO site and maintained for 1 h. […] The images of treated and wild type embryos at 6 dpf were taken using a DFC420C camera coupled to a Leica MZ16FA fluorescence microscope. In order to determine the MTD of tumour cell bearing zebrafish, TLD1433 was performed according to the same procedure, delivered by WA, IV and […] administration as described above for the wild type embryos.

other cell lines = test system: other cell lines; parameters: method as in not given; details: reported for TLD1433 with other cell lines; ref not given; cited from earlier work

## Cc1ccnc(-c2cc(C)ccn2)c1.Cc1ccnc(-c2cc(C)ccn2)c1.[Cl-].[Cl-].[Ru+2].c1csc(-c2ccc(-c3ccc(-c4nc5c6cccnc6c6ncccc6c5[nH]4)s3)s2)c1 [TLD1433]
CRMM2 cells; CRMM2, dark TLD1433 group
  cell fate by FACS (in words): most cells were found alive
CRMM2 cells; CRMM2, light-activated TLD1433 group
  cell fate by FACS (in words): about half of the cells were found dead
[1]; Intravenous 1 nL, 60 min DLI
  Maximum Tolerated Dose (MTD): 4.6 mM
[1]; Retro-orbital 1 nL, 60 min DLI
  Maximum Tolerated Dose (MTD): 4.6 mM
[1]; Water administration, 12 h DLI
  Maximum Tolerated Dose (MTD): 9.2e-06 mM
[1]; IV 1 nL
  concentration not toxic to embryos in the dark: 11500 µM
[1]; RO 1 nL
  concentration not toxic to embryos in the dark: 11500 µM
[1]; WA
  concentration not toxic to embryos in the dark: 0.023 µM
Other cell lines
  PI: > 1000
